Test results from article PMC6130761, “Isolation, crystal structure determination and cholinesterase inhibitory potential of isotalatizidine hydrate from Delphinium denudatum” (Pharmaceutical Biology, 2016).

Key:
[1] = target: T1, BChE (horse-serum E.C 3.1.1.8) (Equus caballus, UniProt P81908); assay: Cholinesterase inhibition assay (Ellman spectrophotometric method), BChE; format: biochemical; details: for Type of inhibition (BChE): Lineweaver-Burk, Dixon plots and replots, 50, 75, 100 μM of compound 1
T1 construct: purchased Sigma Aldrich; host or cells: horse serum
T1 sequence (P81908 whole entry): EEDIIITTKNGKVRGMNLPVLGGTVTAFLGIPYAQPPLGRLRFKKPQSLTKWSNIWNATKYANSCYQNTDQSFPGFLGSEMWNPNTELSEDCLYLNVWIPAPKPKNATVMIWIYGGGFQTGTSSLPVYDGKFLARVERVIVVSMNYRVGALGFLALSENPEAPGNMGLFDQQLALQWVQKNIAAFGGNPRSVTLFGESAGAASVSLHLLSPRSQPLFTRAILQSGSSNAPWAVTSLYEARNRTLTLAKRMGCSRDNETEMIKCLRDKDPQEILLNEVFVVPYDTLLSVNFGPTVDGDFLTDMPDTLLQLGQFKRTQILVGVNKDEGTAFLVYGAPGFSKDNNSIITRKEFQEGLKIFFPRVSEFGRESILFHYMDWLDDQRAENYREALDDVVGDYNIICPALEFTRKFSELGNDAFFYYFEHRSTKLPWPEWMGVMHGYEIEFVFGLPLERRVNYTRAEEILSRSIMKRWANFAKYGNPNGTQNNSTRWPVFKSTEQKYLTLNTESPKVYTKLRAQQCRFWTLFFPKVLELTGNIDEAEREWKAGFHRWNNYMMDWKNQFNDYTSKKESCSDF
Protocol: Enzyme (AChE/BChE) inhibition activities were measured by spectrophotometric method as described in literature (Ellman et al. [1961]). Reported protocol and assay conditions were followed throughout (Rocha et al. [1993]). AChI and AChCl substrates were used to assay AChE and BChE, respectively. DTNB was used as reagent for the measurement of cholinesterase activity. Solution containing DTNB (0.2 mM) in 62 mM sodium phosphate buffer (pH 8.0, 880 μL), test compound solution (40 μL) and AChE or BChE solution (40 μL) were mixed, incubated for 15 min (25 °C). AChE or BChE (40 μL), were added to initiate the respective solution. The hydrolysis of AChE and BChE were noted by naked eye due to formation of yellow colour 5-thio-2-nitrobenzoate anion at a wavelength of 412 nm (15 min). Reactions were performed in triplicate in a BMS spectrophotometer (USA) and the results presented are average values.

[2] = target: T2, AChE (Electric-eel EC 3.1.1.7) (Electrophorus electricus, UniProt O42275); assay: biochemical; format: biochemical; details: for Type of inhibition (AChE): Lineweaver-Burk, Dixon plots and replots, 50, 75, 100 μM of compound 1
T2 construct: purchased Sigma Aldrich
T2 sequence (O42275 24-633): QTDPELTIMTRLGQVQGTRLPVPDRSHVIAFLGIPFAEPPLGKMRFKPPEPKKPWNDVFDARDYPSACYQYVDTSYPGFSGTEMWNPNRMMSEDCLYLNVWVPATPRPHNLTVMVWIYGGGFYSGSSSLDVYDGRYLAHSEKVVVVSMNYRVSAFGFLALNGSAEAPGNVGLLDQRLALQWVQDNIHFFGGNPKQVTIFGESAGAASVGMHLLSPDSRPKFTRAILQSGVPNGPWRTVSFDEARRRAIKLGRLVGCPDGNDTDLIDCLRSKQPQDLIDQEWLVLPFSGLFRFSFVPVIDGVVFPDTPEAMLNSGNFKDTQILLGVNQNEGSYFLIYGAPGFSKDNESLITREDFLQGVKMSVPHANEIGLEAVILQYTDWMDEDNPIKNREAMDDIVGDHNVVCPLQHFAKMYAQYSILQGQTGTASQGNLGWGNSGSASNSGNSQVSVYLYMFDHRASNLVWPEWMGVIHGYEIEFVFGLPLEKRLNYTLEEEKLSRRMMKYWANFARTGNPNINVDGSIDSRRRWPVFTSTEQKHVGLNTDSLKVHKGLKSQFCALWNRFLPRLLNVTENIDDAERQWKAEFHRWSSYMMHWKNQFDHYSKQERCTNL

[3] = listed as isotalatazidine hydrate
[4] = listed as isotalatizidine hydrate

## CCN1CC2(COC)CCC(O)C34C5CC6C(OC)CC(O)(C(CC23)C14)C5C6O (centres unmarked) [Isotalatizidine hydrate, isotalatizidine hydrate]
[1]
  Type of inhibition (BChE): Competitive
[1]; [3]
  Type of inhibition (BChE): competitive type inhibition
[1]; [4]
  Type of inhibition (BChE): competitive inhibitor
[1]; standard error of mean of five assays, DTNB, pH 8.0, 25 °C, read-out: BChE ± SEM (IC50)
  IC50: 21.4 ± 0.23 µM
[2]
  Type of inhibition (AChE): Competitive
[2]; [3]
  Type of inhibition (AChE): competitive type inhibition
[2]; [4]
  Type of inhibition (AChE): competitive inhibitor
[2]; standard error of mean of five assays, DTNB, pH 8.0, 25 °C, read-out: AChE ± SEM (IC50)
  IC50: 12.1 ± 0.43 µM
